In PMC10608985, “Retention Behavior of Anticancer Thiosemicarbazides in Biomimetic Chromatographic Systems and In Silico Calculations” (Molecules, 2023):

What was measured:
[1] = system: α1-acid glycoprotein (AGP); assay: HPLC on immobilized AGP column, affinity and % plasma–protein binding; type: in vitro ADME, human; details: for log K AGP: binding equilibrium constant from calibration curve (Equation 9) of log k AGP; for fraction unbound: human, pH 7.4, % plasma–protein binding converted from log K AGP (Equation 10), read-out: %PPB AGP (converted); for log k AGP: retention on AGP column, 50 mM ammonium acetate pH 7.4 / propan-2-ol 85/15 (v/v)
Outline: (§1)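 Retention (log k) on immobilized-protein HPLC columns, 50 mM ammonium acetate pH 7.4 with propan-2-ol (85/15 for AGP), UV 280 nm, room temperature. log K read from drug calibration curves, then converted to %PPB.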

[2] = HPLC lipophilicity on cholesterol (Chol) stationary phase; type: physicochemical; details: pH 7.4; for Log k Chol: Table S3; for log kw Chol: intercept, linear extrapolation to water; for log kw Chol / -S Chol: MeOH/20 mM acetate buffer; for -S Chol: slope of Soczewiński–Wachtmeister equation
Outline: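 Cholesterol-bonded column run isocratically with MeOH/20 mM acetate buffer at pH 7.4, MeOH fraction 0.3–0.8 (v/v), 0.35 mL/min, room temperature, UV 280 nm. t0 from citric acid; log kw (intercept) and slope S from Soczewiński–Wachtmeister regression of log k against modifier content.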

[3] = set-up: method as in Kozyra et al. [31]; details: MeOH/20 mM acetate buffer, pH 7.4, ref Kozyra et al. [31], cited from earlier work; for log kw C-18: intercept of Soczewiński–Wachtmeister equation (water as mobile phase); for -S C-18: slope of Soczewiński–Wachtmeister equation
[4] = biological target: T1, human serum albumin (HSA) (Homo sapiens, UniProt P02768); assay: HPLC on immobilized HSA column, affinity and % plasma–protein binding; type: in vitro ADME; details: for log K HSA: binding equilibrium constant from calibration curve (Equation 8) of log k HSA; for fraction unbound: human, pH 7.4, % plasma–protein binding converted from log K HSA (Equation 10), read-out: %PPB HSA (converted); for log k HSA: retention on HSA column, 50 mM ammonium acetate pH 7.4 / propan-2-ol 85/15 (v/v)
T1 construct: purchased Chiralpac
Outline: as §1

[5] = HPLC lipophilicity on IAM (immobilized artificial membrane, phosphatidylcholine) stationary phase; type: physicochemical; details: pH 7.4; for Log k IAM: Table S2; for log kw IAM: intercept, linear extrapolation to water; for log kw IAM / -S IAM: ACN/20 mM phosphate buffer; for -S IAM: slope of Soczewiński–Wachtmeister equation
Outline: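 Rexchrom IAM.PC.DD2 column with ACN/20 mM phosphate buffer pH 7.4 (0.15 M KCl), ACN fraction 0.05–0.4 v/v at 0.05 steps, 1 mL/min, UV 280 nm, room temperature; t0 from citric acid. log kw and slope S extrapolated via Soczewiński–Wachtmeister equation.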

T1 sequence (P02768 25-609): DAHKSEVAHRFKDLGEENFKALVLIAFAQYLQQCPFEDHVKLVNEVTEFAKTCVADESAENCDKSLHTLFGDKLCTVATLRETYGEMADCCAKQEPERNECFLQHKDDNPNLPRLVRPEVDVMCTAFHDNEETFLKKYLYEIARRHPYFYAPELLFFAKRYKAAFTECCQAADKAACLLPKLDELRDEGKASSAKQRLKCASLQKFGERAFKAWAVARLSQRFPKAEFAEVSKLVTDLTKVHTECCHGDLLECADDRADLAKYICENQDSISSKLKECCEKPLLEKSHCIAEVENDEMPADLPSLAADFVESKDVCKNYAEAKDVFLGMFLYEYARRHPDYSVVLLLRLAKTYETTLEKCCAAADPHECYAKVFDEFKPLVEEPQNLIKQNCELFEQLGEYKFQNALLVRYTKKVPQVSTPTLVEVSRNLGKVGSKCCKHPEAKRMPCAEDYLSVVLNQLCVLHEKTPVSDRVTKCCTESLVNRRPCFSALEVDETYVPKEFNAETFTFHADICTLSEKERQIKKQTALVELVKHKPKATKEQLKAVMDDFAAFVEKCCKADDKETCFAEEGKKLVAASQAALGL

SMILES	log K AGP [1]	fraction unbound [1]	log k AGP [1]	Log k Chol ([2]; MeOH 0.45 v/v in mobile phase)	Log k Chol ([2]; MeOH 0.50 v/v in mobile phase)	Log k Chol ([2]; MeOH 0.60 v/v in mobile phase)	Log k Chol ([2]; MeOH 0.80 v/v in mobile phase)	log kw Chol [2]	-S Chol [2]	log kw C-18 [3]	-S C-18 [3]	log K HSA [4]	fraction unbound [4]	log k HSA [4]	Log k IAM ([5]; ACN 0.15 v/v in mobile phase)	Log k IAM ([5]; ACN 0.20 v/v in mobile phase)	Log k IAM ([5]; ACN 0.25 v/v in mobile phase)	Log k IAM ([5]; ACN 0.30 v/v in mobile phase)	Log k IAM ([5]; ACN 0.35 v/v in mobile phase)	log kw IAM [5]	other results
O=C(COc1ccccc1)NNC(=S)Nc1ccc(Cl)c(Cl)c1 [Compound 15]	0.9150	0.099	0.8332	1.349	1.013	0.792	-0.876	4.2283	6.2128	3.3757	5.3305	1.8712	0.003	1.5391	1.542	1.032	0.667	0.158	-0.062	2.5780	Log k Chol ([2]; MeOH 0.70 v/v in mobile phase): -0.087; Log k IAM ([5]; ACN 0.40 v/v in mobile phase): -0.346; -S IAM [5]: 7.5617
O=C(COc1ccccc1)NNC(=S)Nc1cccc(F)c1 [Compound 5]	0.5586	0.209	0.4328	0.487	0.184	-0.057	-1.065	2.4598	4.3726	2.4592	4.7921	1.1581	0.056	0.8615	0.565	0.312	0.024	-0.274	-0.441	1.4283	Log k Chol ([2]; MeOH 0.35 v/v in mobile phase): 0.957; Log k Chol ([2]; MeOH 0.40 v/v in mobile phase): 0.699; Log k IAM ([5]; ACN 0.05 v/v in mobile phase): 1.193; Log k IAM ([5]; ACN 0.10 v/v in mobile phase): 0.876; -S IAM [5]: 5.5312
